From the NIST ThermoML archive (doi:10.1007/s10765-006-0056-z)

Assay: molar heat capacity at constant volume; xn = mol fraction of the nth substance listed
Conditions: Fluid (supercritical or subcritical phases), Isochoric Heat Capacity Apparatus

CCCCCCCCCC [decane] + O=C=O
Conditions | molar heat capacity at constant volume [J/K/mol]
515.37 K, Mass density=398.3 kg/m3, x1 = 0.095 | 347.33
515.86 K, Mass density=131.5 kg/m3, x1 = 0.095 | 553.72
516.11 K, Mass density=87 kg/m3, x1 = 0.095 | 740.97
516.76 K, Mass density=83.3 kg/m3, x1 = 0.178 | 975.91
517.48 K, Mass density=83.3 kg/m3, x1 = 0.178 | 984.15
517.59 K, Mass density=374.7 kg/m3, x1 = 0.095 | 348.19
517.68 K, Mass density=310.8 kg/m3, x1 = 0.178 | 496.69
518.51 K, Mass density=310.8 kg/m3, x1 = 0.178 | 499.76
519.25 K, Mass density=155 kg/m3, x1 = 0.095 | 471.73
520.73 K, Mass density=117.8 kg/m3, x1 = 0.178 | 788.7
521.28 K, Mass density=110.8 kg/m3, x1 = 0.095 | 622.54
522.57 K, Mass density=320.2 kg/m3, x1 = 0.095 | 352.88
523.12 K, Mass density=281.4 kg/m3, x1 = 0.095 | 355.33
523.67 K, Mass density=164.2 kg/m3, x1 = 0.178 | 675.66
524.03 K, Mass density=164.2 kg/m3, x1 = 0.178 | 667.67
524.03 K, Mass density=201.8 kg/m3, x1 = 0.095 | 397.1
524.22 K, Mass density=320.2 kg/m3, x1 = 0.095 | 351.33
524.4 K, Mass density=164.2 kg/m3, x1 = 0.178 | 659.98
524.77 K, Mass density=83.3 kg/m3, x1 = 0.178 | 982.86
526.6 K, Mass density=117.8 kg/m3, x1 = 0.178 | 779.17
528.43 K, Mass density=117.8 kg/m3, x1 = 0.178 | 775.54
529.61 K, Mass density=164.2 kg/m3, x1 = 0.178 | 637.53
529.71 K, Mass density=117.8 kg/m3, x1 = 0.178 | 768.84
530.07 K, Mass density=164.2 kg/m3, x1 = 0.178 | 636.24
530.25 K, Mass density=241 kg/m3, x1 = 0.095 | 375.44
530.62 K, Mass density=164.2 kg/m3, x1 = 0.178 | 631.87
530.67 K, Mass density=339.4 kg/m3, x1 = 0.178 | 492.82
531.4 K, Mass density=339.4 kg/m3, x1 = 0.178 | 493.86
532.44 K, Mass density=374.7 kg/m3, x1 = 0.095 | 354.69
532.99 K, Mass density=87 kg/m3, x1 = 0.095 | 727.63
533.17 K, Mass density=117.8 kg/m3, x1 = 0.178 | 758.57
533.71 K, Mass density=155 kg/m3, x1 = 0.095 | 467.68
534.08 K, Mass density=117.8 kg/m3, x1 = 0.178 | 754.94
535.31 K, Mass density=131.5 kg/m3, x1 = 0.095 | 565.99
535.39 K, Mass density=83.3 kg/m3, x1 = 0.178 | 958.14
535.89 K, Mass density=164.2 kg/m3, x1 = 0.178 | 631.13
536.16 K, Mass density=83.3 kg/m3, x1 = 0.178 | 972.28
536.98 K, Mass density=83.3 kg/m3, x1 = 0.178 | 973.82
536.98 K, Mass density=110.8 kg/m3, x1 = 0.095 | 693.49
537.7 K, Mass density=320.2 kg/m3, x1 = 0.095 | 358.27
538.25 K, Mass density=281.4 kg/m3, x1 = 0.095 | 361.63
543.48 K, Mass density=201.8 kg/m3, x1 = 0.095 | 402.01
543.48 K, Mass density=310.8 kg/m3, x1 = 0.178 | 509.05
543.84 K, Mass density=176.7 kg/m3, x1 = 0.095 | 450.93
544.11 K, Mass density=310.8 kg/m3, x1 = 0.178 | 514.46
544.38 K, Mass density=284.3 kg/m3, x1 = 0.178 | 517.29
546.37 K, Mass density=117.8 kg/m3, x1 = 0.178 | 758.81
546.63 K, Mass density=83.3 kg/m3, x1 = 0.178 | 971.79
547.62 K, Mass density=83.3 kg/m3, x1 = 0.178 | 992.89
550.12 K, Mass density=87 kg/m3, x1 = 0.095 | 712.69
550.12 K, Mass density=320.2 kg/m3, x1 = 0.095 | 360.72
550.48 K, Mass density=281.4 kg/m3, x1 = 0.095 | 369.42
550.84 K, Mass density=155 kg/m3, x1 = 0.095 | 462.13
554.06 K, Mass density=164.2 kg/m3, x1 = 0.178 | 623.38
556.37 K, Mass density=131.5 kg/m3, x1 = 0.095 | 553.72
556.91 K, Mass density=83.3 kg/m3, x1 = 0.178 | 997.75
559.75 K, Mass density=241 kg/m3, x1 = 0.095 | 388.83
560.29 K, Mass density=281.4 kg/m3, x1 = 0.095 | 373.42
561.17 K, Mass density=176.7 kg/m3, x1 = 0.095 | 448.69
561.35 K, Mass density=320.2 kg/m3, x1 = 0.095 | 369.84
568.43 K, Mass density=241 kg/m3, x1 = 0.095 | 393.53
